Experimental data as given in ChEMBL document CHEMBL1201862, “PubChem BioAssay data set” (2004).
Activity calls are given as the source filed them.

Experiments:
[1] = molecular target: Metabotropic glutamate receptor 3 (Rattus norvegicus, UniProt P31422); assay: mGlu3 negative allosteric modulator potency, dose response, HEK/GIRK cells, thallium flux, rat (AID 651839); assay type: functional
[2] = molecular target: T1, Replicative DNA helicase DnaB (Mycobacterium tuberculosis, UniProt P9WMR3); assay: DnaB intein splicing inhibitors, dose response, biochemical, cell-free fluorescence (AID 449749); assay type: functional
T1 sequence (P9WMR3 whole entry): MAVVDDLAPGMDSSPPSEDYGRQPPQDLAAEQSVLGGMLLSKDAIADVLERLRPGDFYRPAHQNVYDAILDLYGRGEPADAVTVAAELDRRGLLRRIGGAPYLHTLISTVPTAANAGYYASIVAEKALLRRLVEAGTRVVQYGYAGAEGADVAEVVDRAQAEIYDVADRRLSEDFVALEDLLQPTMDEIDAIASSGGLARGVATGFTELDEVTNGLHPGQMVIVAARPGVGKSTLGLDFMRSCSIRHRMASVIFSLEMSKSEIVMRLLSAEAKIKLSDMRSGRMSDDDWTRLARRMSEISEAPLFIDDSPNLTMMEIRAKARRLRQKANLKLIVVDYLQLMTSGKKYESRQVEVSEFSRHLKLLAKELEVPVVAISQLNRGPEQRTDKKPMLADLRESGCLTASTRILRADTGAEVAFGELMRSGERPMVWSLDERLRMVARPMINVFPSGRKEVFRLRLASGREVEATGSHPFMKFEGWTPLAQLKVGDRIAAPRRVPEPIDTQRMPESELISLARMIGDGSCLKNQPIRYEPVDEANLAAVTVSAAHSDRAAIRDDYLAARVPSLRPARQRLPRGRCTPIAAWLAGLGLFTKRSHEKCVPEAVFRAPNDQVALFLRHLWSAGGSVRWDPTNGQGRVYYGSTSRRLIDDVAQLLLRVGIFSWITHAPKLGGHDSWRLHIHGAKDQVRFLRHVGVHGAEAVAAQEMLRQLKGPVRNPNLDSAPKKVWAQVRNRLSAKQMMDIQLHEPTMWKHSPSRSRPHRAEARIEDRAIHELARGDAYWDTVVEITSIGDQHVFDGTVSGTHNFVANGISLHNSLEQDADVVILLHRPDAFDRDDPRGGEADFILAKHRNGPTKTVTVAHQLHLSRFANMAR

Protein RecA = molecular target: T2, Protein RecA (Mycobacterium tuberculosis, UniProt P9WHJ3); assay: Fluorescence Cell-Free Homogeneous Dose Retest to Identify Inhibitors of RecA-Intein Splicing Activity. [Related pubchem assays (depositor defined):AID2097, AID2223, AID489010, AID492950]; assay type: functional
T2 sequence (P9WHJ3 whole entry): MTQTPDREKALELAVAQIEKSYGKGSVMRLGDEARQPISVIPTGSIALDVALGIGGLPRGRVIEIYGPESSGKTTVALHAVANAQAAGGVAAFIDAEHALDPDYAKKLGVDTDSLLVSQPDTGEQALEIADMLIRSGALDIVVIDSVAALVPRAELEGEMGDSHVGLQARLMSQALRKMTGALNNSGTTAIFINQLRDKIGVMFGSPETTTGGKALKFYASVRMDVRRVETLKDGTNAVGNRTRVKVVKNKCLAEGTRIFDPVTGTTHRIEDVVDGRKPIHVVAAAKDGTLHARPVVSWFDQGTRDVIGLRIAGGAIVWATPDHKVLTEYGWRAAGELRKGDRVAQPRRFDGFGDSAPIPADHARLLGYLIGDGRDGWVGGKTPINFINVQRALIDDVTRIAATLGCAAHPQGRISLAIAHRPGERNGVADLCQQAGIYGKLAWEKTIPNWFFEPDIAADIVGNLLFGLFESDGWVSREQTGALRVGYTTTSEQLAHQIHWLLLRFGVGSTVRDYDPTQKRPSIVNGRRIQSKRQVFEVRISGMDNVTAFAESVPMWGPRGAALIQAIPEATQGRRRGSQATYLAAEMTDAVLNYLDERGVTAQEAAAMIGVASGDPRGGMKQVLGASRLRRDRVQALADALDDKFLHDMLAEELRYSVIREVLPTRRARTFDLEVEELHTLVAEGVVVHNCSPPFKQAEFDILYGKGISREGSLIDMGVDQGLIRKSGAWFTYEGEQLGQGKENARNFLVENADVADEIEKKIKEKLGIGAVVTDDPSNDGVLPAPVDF

Genome polyprotein = Genome polyprotein (dengue virus type 2, UniProt P29990); assay: Dengue-2 NS5 methyltransferase inhibitors, primary screen, biochemical, confirmation dose response (AID 588689); assay type: functional
Chain of Genome polyprotein (P29990 2492-3391 limits assumed): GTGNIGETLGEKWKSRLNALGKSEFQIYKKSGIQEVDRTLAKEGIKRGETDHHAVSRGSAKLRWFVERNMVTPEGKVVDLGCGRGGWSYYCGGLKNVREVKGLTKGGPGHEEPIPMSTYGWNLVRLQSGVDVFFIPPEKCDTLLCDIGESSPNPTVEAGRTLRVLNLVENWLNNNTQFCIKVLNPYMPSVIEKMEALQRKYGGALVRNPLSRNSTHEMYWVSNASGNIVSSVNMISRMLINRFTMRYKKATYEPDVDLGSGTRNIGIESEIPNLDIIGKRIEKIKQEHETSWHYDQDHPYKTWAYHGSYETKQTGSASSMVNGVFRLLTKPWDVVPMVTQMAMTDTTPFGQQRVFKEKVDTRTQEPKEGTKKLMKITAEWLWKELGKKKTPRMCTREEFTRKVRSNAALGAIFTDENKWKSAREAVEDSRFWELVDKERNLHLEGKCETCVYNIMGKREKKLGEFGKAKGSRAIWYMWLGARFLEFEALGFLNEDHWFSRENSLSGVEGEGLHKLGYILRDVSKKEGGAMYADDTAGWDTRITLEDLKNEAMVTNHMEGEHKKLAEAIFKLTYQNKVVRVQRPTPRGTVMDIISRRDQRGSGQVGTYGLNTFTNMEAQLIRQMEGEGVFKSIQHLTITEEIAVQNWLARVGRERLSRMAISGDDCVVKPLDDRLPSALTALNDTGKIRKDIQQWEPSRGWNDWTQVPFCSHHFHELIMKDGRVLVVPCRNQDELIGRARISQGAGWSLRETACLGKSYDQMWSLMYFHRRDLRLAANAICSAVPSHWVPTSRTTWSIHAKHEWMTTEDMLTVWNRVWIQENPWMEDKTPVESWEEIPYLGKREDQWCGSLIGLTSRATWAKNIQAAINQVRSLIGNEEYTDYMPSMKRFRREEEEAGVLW

[3] = molecular target: Tyrosyl-DNA phosphodiesterase 2 (Homo sapiens, UniProt O95551); assay: human TDP2 enzyme inhibitors, dose response, biochemical, epi absorbance, IC50 (AID 743297)
Chain of Tyrosyl-DNA phosphodiesterase 2 (O95551 whole entry): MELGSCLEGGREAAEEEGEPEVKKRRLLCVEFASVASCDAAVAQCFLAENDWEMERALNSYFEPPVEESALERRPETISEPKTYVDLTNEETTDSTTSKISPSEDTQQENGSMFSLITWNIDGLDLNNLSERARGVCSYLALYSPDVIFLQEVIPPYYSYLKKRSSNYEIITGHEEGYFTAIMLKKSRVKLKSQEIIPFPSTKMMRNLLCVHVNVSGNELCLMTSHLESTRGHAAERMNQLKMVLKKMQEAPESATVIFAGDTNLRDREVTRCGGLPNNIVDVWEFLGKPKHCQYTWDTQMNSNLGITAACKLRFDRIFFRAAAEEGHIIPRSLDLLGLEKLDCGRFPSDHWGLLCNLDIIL

[4] = molecular target: 1-phosphatidylinositol 4,5-bisphosphate phosphodiesterase gamma-1 (Homo sapiens, UniProt P19174); assay: Counterscreen for inhibitors of phospholipase C isozymes (PLC-B3): Fluorescence-based biochemical high throughput dose response assay to identify inhibitors of phospholipase C isozymes (PLC-gamma1).
Chain of 1-phosphatidylinositol 4,5-bisphosphate phosphodiesterase gamma-1 (P19174 whole entry): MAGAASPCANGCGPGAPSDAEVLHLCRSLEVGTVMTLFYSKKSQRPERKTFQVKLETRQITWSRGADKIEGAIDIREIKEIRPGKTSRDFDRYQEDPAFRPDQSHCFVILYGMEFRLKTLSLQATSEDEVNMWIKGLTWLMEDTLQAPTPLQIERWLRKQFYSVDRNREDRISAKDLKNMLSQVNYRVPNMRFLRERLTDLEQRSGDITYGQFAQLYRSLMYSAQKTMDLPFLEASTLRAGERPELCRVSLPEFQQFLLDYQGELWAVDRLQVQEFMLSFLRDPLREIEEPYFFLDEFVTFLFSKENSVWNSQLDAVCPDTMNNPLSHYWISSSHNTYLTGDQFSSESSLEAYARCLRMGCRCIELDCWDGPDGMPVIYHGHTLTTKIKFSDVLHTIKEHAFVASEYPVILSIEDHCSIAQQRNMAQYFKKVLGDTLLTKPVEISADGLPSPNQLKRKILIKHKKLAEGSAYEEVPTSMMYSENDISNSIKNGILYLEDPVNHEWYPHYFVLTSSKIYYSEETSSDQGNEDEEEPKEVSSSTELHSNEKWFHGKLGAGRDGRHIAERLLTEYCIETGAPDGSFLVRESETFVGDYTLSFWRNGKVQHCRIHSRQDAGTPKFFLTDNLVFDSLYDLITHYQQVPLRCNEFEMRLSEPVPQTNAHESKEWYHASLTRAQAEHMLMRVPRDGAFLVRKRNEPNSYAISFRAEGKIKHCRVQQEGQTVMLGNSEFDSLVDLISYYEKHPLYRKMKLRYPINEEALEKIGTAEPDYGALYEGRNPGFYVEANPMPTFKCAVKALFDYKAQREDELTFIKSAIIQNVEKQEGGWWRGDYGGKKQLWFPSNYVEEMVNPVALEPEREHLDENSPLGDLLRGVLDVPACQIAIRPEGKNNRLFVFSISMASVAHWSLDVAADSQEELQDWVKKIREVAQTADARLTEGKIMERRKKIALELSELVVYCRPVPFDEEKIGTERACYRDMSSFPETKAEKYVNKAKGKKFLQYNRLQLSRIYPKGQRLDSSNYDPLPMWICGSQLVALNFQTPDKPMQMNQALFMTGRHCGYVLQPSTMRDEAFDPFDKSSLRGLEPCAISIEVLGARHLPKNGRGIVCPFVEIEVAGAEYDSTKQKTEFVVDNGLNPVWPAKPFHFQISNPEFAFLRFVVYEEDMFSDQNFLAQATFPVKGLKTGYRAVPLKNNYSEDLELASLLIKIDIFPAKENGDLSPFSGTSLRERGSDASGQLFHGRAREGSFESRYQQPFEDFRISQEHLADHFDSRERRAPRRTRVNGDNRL

[5] = molecular target: 1-phosphatidylinositol 4,5-bisphosphate phosphodiesterase beta-3 (Homo sapiens, UniProt Q01970); assay: Fluorescence-based biochemical high throughput dose response assay to identify inhibitors of phospholipase C isozymes (PLC-B3).
Chain of 1-phosphatidylinositol 4,5-bisphosphate phosphodiesterase beta-3 (Q01970 whole entry): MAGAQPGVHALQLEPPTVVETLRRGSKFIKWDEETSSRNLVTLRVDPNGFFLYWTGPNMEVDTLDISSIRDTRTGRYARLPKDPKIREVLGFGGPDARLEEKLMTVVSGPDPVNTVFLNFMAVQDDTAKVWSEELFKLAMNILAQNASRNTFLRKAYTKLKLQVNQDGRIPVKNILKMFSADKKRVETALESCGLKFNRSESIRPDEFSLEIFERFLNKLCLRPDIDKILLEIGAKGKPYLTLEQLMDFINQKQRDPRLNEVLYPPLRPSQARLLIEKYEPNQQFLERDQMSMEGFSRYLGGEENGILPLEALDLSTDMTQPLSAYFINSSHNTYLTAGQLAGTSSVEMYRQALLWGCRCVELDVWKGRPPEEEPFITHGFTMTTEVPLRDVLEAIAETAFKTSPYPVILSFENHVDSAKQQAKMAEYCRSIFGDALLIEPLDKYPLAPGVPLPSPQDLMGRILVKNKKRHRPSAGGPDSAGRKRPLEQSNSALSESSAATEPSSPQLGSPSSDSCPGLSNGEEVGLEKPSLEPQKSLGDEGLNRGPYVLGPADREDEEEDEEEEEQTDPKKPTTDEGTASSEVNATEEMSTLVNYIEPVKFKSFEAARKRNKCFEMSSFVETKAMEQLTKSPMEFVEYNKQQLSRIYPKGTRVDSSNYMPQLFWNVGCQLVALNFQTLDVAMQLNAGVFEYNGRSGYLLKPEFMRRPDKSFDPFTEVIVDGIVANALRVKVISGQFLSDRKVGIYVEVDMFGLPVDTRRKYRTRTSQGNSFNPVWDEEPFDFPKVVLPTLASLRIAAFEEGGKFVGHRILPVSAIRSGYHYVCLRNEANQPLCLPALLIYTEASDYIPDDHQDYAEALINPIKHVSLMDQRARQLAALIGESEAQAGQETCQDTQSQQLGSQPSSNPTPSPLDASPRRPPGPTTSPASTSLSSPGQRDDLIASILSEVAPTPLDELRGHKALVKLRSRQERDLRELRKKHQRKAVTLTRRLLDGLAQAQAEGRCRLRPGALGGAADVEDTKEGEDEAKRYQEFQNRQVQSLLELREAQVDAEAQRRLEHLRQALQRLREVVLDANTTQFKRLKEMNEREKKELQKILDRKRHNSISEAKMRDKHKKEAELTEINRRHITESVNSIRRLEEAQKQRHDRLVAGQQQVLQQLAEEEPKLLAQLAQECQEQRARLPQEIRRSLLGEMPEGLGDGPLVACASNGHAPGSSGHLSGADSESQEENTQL

[6] = molecular target: NAD-dependent protein deacylase sirtuin-5, mitochondrial (Homo sapiens, UniProt Q9NXA8); assay: SIRT5 deacylase inhibitors, dose response, biochemical, fluorescence imaging, cherry-pick, set 6 (AID 720597)
Chain of NAD-dependent protein deacylase sirtuin-5, mitochondrial (Q9NXA8 whole entry): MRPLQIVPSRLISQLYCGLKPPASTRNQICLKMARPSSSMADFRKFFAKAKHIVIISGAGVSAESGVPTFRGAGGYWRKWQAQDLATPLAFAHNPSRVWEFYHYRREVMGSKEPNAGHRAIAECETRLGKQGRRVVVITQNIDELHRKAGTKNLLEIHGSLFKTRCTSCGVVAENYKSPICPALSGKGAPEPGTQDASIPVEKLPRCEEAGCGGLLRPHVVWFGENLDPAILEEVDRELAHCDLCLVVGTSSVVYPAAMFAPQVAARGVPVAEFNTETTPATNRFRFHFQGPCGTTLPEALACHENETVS

[7] = A375 melanoma cell viability loss, dose response, counter-screen for MITF inhibitor project, CellTiter-Glo luminescence, dry powder, set 4 (AID 624364); assay type: functional, cell-based; settings: A-375;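 note: A375 melanoma cells are MITF independent so this is a counter screen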
[8] = A375 melanoma cell cytotoxicity, dose response, counter-screen for MITF inhibitor project, CellTiter-Glo luminescence, dry powder, set 2 (AID 624489); assay type: functional, cell-based; settings: A-375;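 note: actives are compounds lowering A375 viability meaning general cytotoxicity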

Chain of Metabotropic glutamate receptor 3 (P31422 whole entry): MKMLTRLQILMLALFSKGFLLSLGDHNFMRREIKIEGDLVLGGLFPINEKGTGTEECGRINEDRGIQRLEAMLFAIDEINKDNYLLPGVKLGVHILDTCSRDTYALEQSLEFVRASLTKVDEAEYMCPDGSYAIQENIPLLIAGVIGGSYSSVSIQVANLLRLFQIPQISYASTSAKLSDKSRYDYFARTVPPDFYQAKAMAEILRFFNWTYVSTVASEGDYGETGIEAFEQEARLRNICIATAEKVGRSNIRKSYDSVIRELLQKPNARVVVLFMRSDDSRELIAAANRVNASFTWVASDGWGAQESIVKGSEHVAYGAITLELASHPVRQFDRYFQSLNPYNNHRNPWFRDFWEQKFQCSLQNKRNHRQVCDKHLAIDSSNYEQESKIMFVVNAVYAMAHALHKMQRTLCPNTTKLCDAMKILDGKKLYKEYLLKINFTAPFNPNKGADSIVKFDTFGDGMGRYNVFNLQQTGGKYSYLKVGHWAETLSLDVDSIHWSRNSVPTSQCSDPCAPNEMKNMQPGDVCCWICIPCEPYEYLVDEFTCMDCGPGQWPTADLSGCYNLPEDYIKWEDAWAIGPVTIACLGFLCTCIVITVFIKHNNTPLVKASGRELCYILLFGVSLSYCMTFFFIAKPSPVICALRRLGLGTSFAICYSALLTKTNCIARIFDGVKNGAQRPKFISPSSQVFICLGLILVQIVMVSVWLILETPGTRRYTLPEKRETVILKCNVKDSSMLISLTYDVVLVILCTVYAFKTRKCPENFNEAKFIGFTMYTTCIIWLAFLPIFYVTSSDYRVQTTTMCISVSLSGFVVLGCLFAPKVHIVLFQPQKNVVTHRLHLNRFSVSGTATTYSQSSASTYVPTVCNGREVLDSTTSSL

COc1ccc(C#Cc2ccc(C(=O)N3CCCC(OC)C3)cc2)cc1 (centres undefined)
IC50 [1]: 7.15 µM (active)

COc1ccc(C(c2c(C)[nH]n(-c3ccccc3)c2=O)c2c(C)[nH]n(-c3ccccc3)c2=O)cc1OC
AC50 [2]: 1.22 µM (active)
EC50 (Protein RecA): 0.688 µM (active)
IC50 (Genome polyprotein): 35.9 µM (active)
IC50 [3]: 95.2 µM (inactive)

Cc1ccc(OCCn2c(CCNC(=O)C3CCCCCC3)nc3ccccc32)cc1
IC50 [4]: > 123 µM (inactive)
IC50 [5]: > 123 µM (inactive)

C[C@H]1CN([C@@H](C)CO)C(=O)c2cccc(NC(=O)NC3CCCCC3)c2O[C@@H]1CN(C)Cc1ccc(C(=O)O)cc1
AC50 [6]: 22.8 µM (active)

C[C@@H]1CN([C@@H](C)CO)C(=O)c2cc(NS(=O)(=O)c3ccccc3)ccc2O[C@@H]1CN(C)CC1CCCCC1
AC50 [6]: > 30 µM (inactive)

O=C(c1ccc2cc(-c3cccc(OCc4ccccc4)c3)ccc2c1)N1CCCC(CO)C1 (centres undefined)
IC50 [1]: 1.08 µM (inactive)

O=C1C(Nc2ccccc2)=C(NS(=O)(=O)c2ccccc2[N+](=O)[O-])C(=O)c2ccccc21
AC50 [7]: > 70 µM (inactive)
AC50 [8]: > 70 µM (inactive)

COc1ccc(C2=C(NC(=O)c3ccc(Cl)cc3)C(=O)c3ccccc3C2=O)cc1
AC50 [7]: 35.3 µM (active)
AC50 [8]: 18.2 µM (active)
